The results in this text go back to ChEMBL document CHEMBL3817816, “Improvement of the pharmacological properties of amidated kyotorphin by means of iodination” (Medchemcomm, 2016).

The test system of series [1] is Intestine. Briefly: Drug uptake in Sprague-Dawley rat intestine at 11 MBq, ip after 5 mins by gamma counting assay. The settings on record: in vivo. The format is ADME, organism-based.
Series [2] has as its system Kidney. The series is described as follows: Drug uptake in Sprague-Dawley rat kidney at 11 MBq, ip after 10mins by gamma counting assay. Format: ADME, organism-based. To be noted: in vivo.
In series [3] the test system is Thyroid gland. The series is described as follows: Drug uptake in Sprague-Dawley rat thyroid at 11 MBq, ip after 5 mins by gamma counting assay. To be noted: in vivo. The format is ADME, organism-based.
Series [4] concerns Spleen. Briefly: Drug uptake in Sprague-Dawley rat spleen at 11 MBq, ip after 5 mins by gamma counting assay. Format: ADME, organism-based. The settings on record: in vivo.
Series [5] relates to Liver. Briefly: Stability of compound in Sprague-Dawley rat liver homogenate assessed as remaining parent compound […] at 10 mins by RP-HPLC analysis. The format is ADME. To be noted: iv.
Series [6] is described as follows: Octanol-PBS partition coefficient, log P of the compound at pH 7.4 by shake flask method. The format is physicochemical.
For series [7], the system named is Liver. The series is described as follows: Drug uptake in Sprague-Dawley rat liver at 11 MBq, ip after 5 mins by gamma counting assay. The format is ADME, organism-based. To be noted: in vivo.
Series [8] concerns Muscle tissue. The series is described as follows: Drug uptake in Sprague-Dawley rat muscle at 11 MBq, ip after 5 mins by gamma counting assay. The format is ADME, organism-based. The settings on record: in vivo.
In series [9] the test system is Stomach. Briefly: Drug uptake in Sprague-Dawley rat stomach at 11 MBq, ip after 5 mins by gamma counting assay. The format is ADME, organism-based. To be noted: in vivo.
Series [10] concerns Femur. Briefly: Drug uptake in Sprague-Dawley rat femur at 11 MBq, ip after 10mins by gamma counting assay. Format: ADME, organism-based. The settings on record: in vivo.
For series [11], the system named is Spleen. Briefly: Drug uptake in Sprague-Dawley rat spleen at 11 MBq, ip after 10mins by gamma counting assay. The format is ADME, organism-based. The settings on record: in vivo.
Series [12] concerns Stomach. Briefly: Drug uptake in Sprague-Dawley rat stomach at 11 MBq, ip after 10mins by gamma counting assay. Format: ADME, organism-based. To be noted: in vivo.
Series [13] is described as follows: Permeability across apical to basolateral side of mouse bEND.3 cells at 37 kBq/200 uL after 10 hrs by transwell assay relative to control. The format is ADME.
Series [14] deals with Liver. Briefly: Drug uptake in Sprague-Dawley rat liver at 11 MBq, ip after 10mins by gamma counting assay. Format: ADME, organism-based. The settings on record: in vivo.
Series [15] relates to Lung. Briefly: Drug uptake in Sprague-Dawley rat lung at 11 MBq, ip after 5 mins by gamma counting assay. Format: ADME, organism-based. The settings on record: in vivo.
The subject of series [16] is Kidney. The series is described as follows: Stability of compound in Sprague-Dawley rat kidney homogenate assessed as remaining parent compound at 10 mins by RP-HPLC analysis. To be noted: tissue homogenate. The format is ADME, tissue-based.
Series [17] has as its system Brain. The series is described as follows: Drug uptake in Sprague-Dawley rat brain at 11 MBq, ip after 5 mins by gamma counting assay. Format: ADME, organism-based. To be noted: in vivo.
Series [18] concerns Heart. The series is described as follows: Drug uptake in Sprague-Dawley rat heart at 11 MBq, ip after 10mins by gamma counting assay. The format is ADME, organism-based. To be noted: in vivo.
For series [19], the system named is Femur. The series is described as follows: Drug uptake in Sprague-Dawley rat femur at 11 MBq, ip after 5 mins by gamma counting assay. To be noted: in vivo. The format is ADME, organism-based.
Series [20] relates to Blood. The series is described as follows: Drug uptake in Sprague-Dawley rat blood at 11 MBq, ip after 10mins by gamma counting assay. The settings on record: in vivo. The format is ADME, organism-based.
In series [21] the test system is Heart. Briefly: Drug uptake in Sprague-Dawley rat heart at 11 MBq, ip after 5 mins by gamma counting assay. The format is ADME, organism-based. To be noted: in vivo.
In series [22] the test system is Blood. The series is described as follows: Drug uptake in Sprague-Dawley rat blood at 11 MBq, ip after 5 mins by gamma counting assay. To be noted: in vivo. The format is ADME, organism-based.
Series [23] is described as follows: Stability of compound in saline at 11 kBq/uL up to 1 week at 4 degC by HPLC analysis. Format: physicochemical. To be noted: buffer, 168 h.
The test system of series [24] is Intestine. Briefly: Drug uptake in Sprague-Dawley rat intestine at 11 MBq, ip after 10mins by gamma counting assay. To be noted: in vivo. The format is ADME, organism-based.
Series [25] has as its system Lung. The series is described as follows: Drug uptake in Sprague-Dawley rat lung at 11 MBq, ip after 10mins by gamma counting assay. Format: ADME, organism-based. The settings on record: in vivo.
Series [26] relates to Muscle tissue. Briefly: Drug uptake in Sprague-Dawley rat muscle at 11 MBq, ip after 10mins by gamma counting assay. The format is ADME, organism-based. To be noted: in vivo.
The test system of series [27] is Thyroid gland. Briefly: Drug uptake in Sprague-Dawley rat thyroid at 11 MBq, ip after 10mins by gamma counting assay. The format is ADME, organism-based. The settings on record: in vivo.
Series [28] has as its system Kidney. The series is described as follows: Drug uptake in Sprague-Dawley rat kidney at 11 MBq, ip after 5 mins by gamma counting assay. The format is ADME, organism-based. To be noted: in vivo.
Series [29] in a line: Stability of compound in Sprague-Dawley rat serum assessed as remaining parent compound at 5 mins by RP-HPLC analysis. Format: ADME. To be noted: read-out: Stability.
Series [30] deals with Brain. The series is described as follows: Drug uptake in Sprague-Dawley rat brain at 11 MBq, ip after 10mins by gamma counting assay. The format is ADME, organism-based. To be noted: in vivo.
The subject of series [31] is Rattus norvegicus. Briefly: Analgesic activity in Wistar Han rat assessed as time required to show maximal effect at 44.42 mg/kg, ip administered as single dose by hot plate test. The format is functional.
The subject of series [32] is Rattus norvegicus. The series is described as follows: Analgesic activity in Wistar Han rat assessed as time required to show maximal effect at 56.47 mg/kg, ip administered as single dose by hot plate test. Format: functional.
For series [33], the system named is Rattus norvegicus. Briefly: Analgesic activity in Wistar Han rat assessed as time required to show maximal effect at 5 mg/kg, ip by hot plate test. The format is functional.

For `N=C(N)NCCC[C@H](NC(=O)[C@@H](N)Cc1ccc(O)c([125I])c1)C(N)=O`, the Drug uptake in series [1] is reported as 1.6 % ID/g; in series [2], 0.57 % ID/g; in series [3] it was 2.7 % ID/g; in series [4], 1.1 % ID/g; in series [7], 0.9 % ID/g; in [8], 0.28 % ID/g. Further, the Drug uptake in [9] stood at 0.48 % ID/g; in series [10], 0.27 % ID/g; in series [11] it was 0.33 % ID/g; in series [12], 0.98 % ID/g; in series [14] it was 0.88 % ID/g; in series [15], 0.5 % ID/g. Moreover, the Drug uptake in series [17] is recorded as 0.03 % ID/g; in series [18] it was 0.32 % ID/g; in [19], 0.22 % ID/g; in [20] it was 0.68 % ID/g; in [21], 0.26 % ID/g; in series [22], 0.5 % ID/g. Besides, the Drug uptake was found to be 1.06 % ID/g in series [24]; 0.35 % ID/g in series [25]; 0.26 % ID/g in [26]; 0.7 % ID/g in series [27]; 0.5 % ID/g in series [28]; 0.07 % ID/g in series [30]. Besides, the Stability result in [5] is reported as “Unstable”; in [16] it was “Unstable”; in [23], “Stable”. The logD in series [6] was -1.8. In [13], the “fold change (FC)” value worked out at 0.49. The remaining at 5 min in series [29] was 72.5%. In [31], the Time is on record as 30 min.

`N=C(N)NCCC[C@H](NC(=O)[C@@H](N)Cc1cc([125I])c(O)c([125I])c1)C(N)=O`: the Time in series [32] came out at 30 min.

As to `N=C(N)NCCC[C@H](NC(=O)[C@@H](N)Cc1ccc(O)cc1)C(N)=O`, the Time in series [33] is reported as 15 min.
